These results are taken from US20260294770A1, “FORMULATIONS OF NARINGENIN” (DEBUT BIOTECHNOLOGY, INC., priority 2023, published 2026).

SMILES strings stand for the structures.

One data set deals with C2CD4B. Put plainly: Downregulation of gene expression and/or activity, 1% naringenin: C2CD4B. The source says: (§1) In certain embodiments, administration of a composition comprising naringenin leads to up-regulation of LCE5A, KRT77, ALOXE3, KRT1, HPGD, MUCL1, CASP14, WFDC12, KRT10, DNASE1L2, IL37, SERPINB12, HAL, UPK1A, CALML5, LCE2B, and/or MIR205. In certain embodiments, administration of a composition comprising naringenin leads to down-regulation of CCL11, CSF2, IL23A, IL11, BMP6, IL13RA2, C2CD4A, NR4A2, C2CD4B, FGF2, FARP4, GDF15, THBS1, HSPA1A, PTGS2, and/or DKK1. Tables 10 and 11 provide data for upregulation and downregulation respectively of certain genes after administration of compositions comprising 1% naringenin.
C2 calcium dependent domain containing 4B (C2CD4B) plays a role in the inflammatory response. In certain embodiments, downregulation of C2CD4B results in reduction in inflammation. In certain embodiments, the administration of composition comprising naringenin results in at least about 5 to about 15-fold downregulation of expression and/or activity of C2CD4B. In certain embodiments, the administration of composition comprising naringenin results in at least about ten (10) fold downregulation of expression and/or activity of C2CD4B.

A further data set has as its system CALML5. In words: Upregulation of gene expression and/or activity, 1% naringenin: CALML5.
Description: as §1
Calmodulin like 5 (CALML5) plays a role in cell growth. The enzyme encoded by CALML5 is a novel calcium binding protein expressed in the epidermis and related to the calmodulin family of calcium binding proteins. It plays a key role in cell growth and proliferation, including playing a key role in terminal differentiation of keratinocytes. In certain embodiments, administration of compositions comprising naringenin leads to upregulation of CALML5, which leads to increase cell proliferation, including the cells in the skin and the underlying tissues. […] In certain embodiments, the administration of composition comprising naringenin results in at least about 2 to about 10-fold upregulation of expression and/or activity of CALML5. […]

For the next data set, the system named is BMP6. In words: Downregulation of gene expression and/or activity, 1% naringenin: BMP6.
Description: as §1
Bone morphogenetic protein 6 (BMP6) plays a role in wound healing. The protein encoded by this gene is a member of the TGFβ superfamily. Bone morphogenetic proteins are known for their ability to induce the growth of bone and cartilage. BMP6 may induce all osteogenic markers in mesenchymal stem cells. In certain embodiments, the administration of compositions comprising naringenin leads to downregulation of expression and/or activity of BMP6. […] In certain embodiments, this may also lead to anti-aging effect for the skin. In certain embodiments, the administration of composition comprising naringenin results in at least about 2 to about 20-fold downregulation of expression and/or activity of BMP6. […]

Data set [1] in a line: Glycation inhibition assay. Format: biochemical. Conditions: for IC50 glycation inhibition: calculated. The protocol: The assay was conducted to evaluate the glycation inhibition activity of compositions comprising naringenin.
Nonenzymatic glycation can occur when glucose reacts with proteins, forming a Schiff base intermediate that subsequently undergoes Amadori rearrangement to form glycosylated proteins, when they react with skin proteins to form Advanced Glycation End products (AGE). AGE formation can result in loss of skin elasticity and impaired cellular function. The glycation inhibition ability of a compound is measured by change in fluorescence m relative to solvent control.

The subject of the next data set is HAL. In words: Upregulation of gene expression and/or activity, 1% naringenin: HAL.
Description: as §1

The next data set relates to MIR205. Put plainly: Upregulation of gene expression and/or activity, 1% naringenin: MIR205.
Description: as §1
MicroRNA 205 (MIR205) plays a role in clearance of damaged cells. In certain embodiments, administration of compositions comprising naringenin leads to upregulation of MIR205, which leads to increase clearance of damaged cells. This increase in clearance of damaged cells leads to enhancement in cell turnover and/or recycling, which results in an improvement in anti-aging effect. […] In certain embodiments, the administration of composition comprising naringenin results in at least about 2 to about 10-fold upregulation of expression and/or activity of MIR205. In certain embodiments, the administration of composition comprising naringenin results in at least about five (5) fold upregulation of expression and/or activity of MIR205.

Another data set concerns FABP4. Put plainly: Downregulation of gene expression and/or activity, 1% naringenin: FABP4.
Description: as §1
Fatty acid binding protein 4 (FABP4) plays a role in metabolic inflammation from the fat tissue. FABP4 acts at the interface of metabolic and inflammatory pathways in adipocytes and macrophages and plays important roles in the development of insulin resistance, diabetes mellitus, and atherosclerosis. In certain embodiments, downregulation of FABP4 leads to reduced metabolic inflammation from the fat tissue signaling. In certain embodiments, the administration of composition comprising naringenin results in at least about 2 to about 10-fold downregulation of expression and/or activity of FABP4. In certain embodiments, the administration of composition comprising naringenin results in at least about five (5) fold downregulation of expression and/or activity of FABP4.

Another data set concerns C2CD4A. Put plainly: Downregulation of gene expression and/or activity, 1% naringenin: C2CD4A. Conditions: negative = downregulation.
Description: as §1

Another data set relates to ALOXE3. In words: Upregulation of gene expression and/or activity, 1% naringenin: ALOXE3.
Description: as §1
Arachidonate lipoxygenase 3 (ALOXE3) is involved in formation of epidermis lipids. In particular, ALOXE3 helps add an oxygen molecule to certain fatty acids to produce substances called fatty acid hydroperoxides. The enzyme encoded by ALOXE3 is a hydroperoxide isomerase that synthesizes a unique type of epoxy alcohol (8R-hydroxy-11R,12R-epoxyeicosa-5Z,9E,14Z-trienoic acid) from 12R-hydroperoxyeicosatetraenoic acid (12R-HPETE). This epoxy alcohol can activate the nuclear receptor peroxisome proliferator-activated receptor alpha (PPARalpha), which is implicated in epidermal differentiation. Loss of function of the enzyme encoded by this gene results in ichthyosis, implicating the function of this gene in the differentiation of human skin. […]

The next data set relates to THBS1. Put plainly: Downregulation of gene expression and/or activity, 1% naringenin: THBS1. Conditions: negative = downregulation.
Description: as §1

`O=C1C[C@@H](c2ccc(O)cc2)Oc2cc(O)cc(O)c21` [naringenin, (2S)-5,7-Dihydroxy-2-(4-hydroxyphenyl)-2,3-dihydro-4H-1-benzopyran-4-one]: the “fold downregulation in expression and/or activity of C2CD4B” value in the data set on C2CD4B was about 8 fold. Moreover, in the data set on C2CD4B (negative = downregulation), the “Fold-increase (downregulation table) C2CD4B” value was −8 fold. In the data set on CALML5, the “Fold-increase in expression and/or activity of CALML5” value is on record as about 7 fold. In addition, in the data set with BMP6, the “fold downregulation in expression and/or activity of BMP6” value is recorded as about 11 fold. Moreover, the “Fold-increase (downregulation table) BMP6” value in the data set on BMP6 (negative = downregulation) is recorded as −11 fold. In addition, in [1], the “Lowest concentration inhibiting glycation” value is given as at most 0.002 % w/w. Moreover, the “% Enzyme Inhibition (glycation inhibition)” value in [1] (0.008 % w/w naringenin) was determined as 27.87%; in [1] (0.016 % w/w naringenin) it was 45.49%; in data set [1] (0.031 % w/w naringenin), 60.22%; in [1] (0.0625 % w/w naringenin), 69.05%. Further, the figures for the IC50 glycation inhibition in data set [1] and in data set [1] (Example 7) were 0.019 % w/w and 0.019%, respectively. Besides, the “Fold-increase in expression and/or activity of HAL” value in the data set on HAL came to 8 fold. Moreover, the “Fold-increase in expression and/or activity of MIR205” value in the data set with MIR205 is about 6 fold. The “fold downregulation in expression and/or activity of FABP4” value in the data set on FABP4 is listed as about 7 fold. In addition, the “Fold-increase (downregulation table) FABP4” value in the data set with FABP4 (negative = downregulation) is given as −7 fold. Also, the “Fold-increase (downregulation table) C2CD4A” value in the data set on C2CD4A is −10 fold. For the same compound, in the data set on ALOXE3, the “Fold-increase in expression and/or activity of ALOXE3” value is about 12 fold. Further, the “Fold-increase (downregulation table) THBS1” value with THBS1 is listed as −6 fold.
